Measurements taken from paper doi:10.1101/2025.11.18.689169v1 (bioRxiv, 2025).

Columns and labels:
[1] = free ICG; cited from earlier work
[2] = tested on: 4T1 mCherry mammary tumors; experiment: Live IVIS imaging of tumor accumulation and tumor-to-background ratio; assay type: in vivo, Balb/c mice; conditions: 50 nmole intravenous, after background cleared over time, day 2
[3] = tested on: 4T1 mouse breast cancer cells; experiment: Cellular uptake, confocal microscopy; assay type: cell-based; conditions: 4T1 cells, 10 µM ICG labeled PAs, 2 hours, 37°C, confocal microscope
[4] = tested on: 4T1 mCherry mammary tumors; experiment: Biodistribution by ICG fluorescence of tissue homogenates; assay type: in vivo, Balb/c mice; conditions: 50 nmole intravenous, tissue homogenates 2 days after injection

Compound | blood circulation half-life [1] [min] | tumor-to-background ratio (TBR) [2] | cellular uptake / membrane retention [3] | tumor to liver ratio [4]
CC1(C)C(/C=C/C=C/C=C/C=C2\N(CCCCS(=O)(=O)O)c3ccc4ccccc4c3C2(C)C)=[N+](CCCCS(=O)(=O)[O-])c2ccc3ccccc3c21 [ICG, indocyanine green] | < 5 | – | – | –
GGGHGDCDD [C12] | – | 6 | – | –
GGGHGDCDD [C16] | – | > 10 | significant retention in the membrane | –
GGGHGDCDD [C18] | – | > 10 | significant retention in the membrane | ~3.3
